Measured values: patent US12404295B2, “(Hetero)aryl-methyl-thio-beta-D-galactopyranoside derivatives” (Idorsia Pharmaceuticals Ltd, priority 2019, dated 2025)
Where two headings read alike, the source gives them in different places.

Key:
human Gal-3 (hGal-3) = human Gal-3 (hGal-3) (Homo sapiens (Human), UniProt P17931); experiment: competitive binding assay: biotinylated hGal-3 binding to microplate-adsorbed asialofetuin (ASF)
Method in brief: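 Competition of compounds with biotinylated human Gal-3 for asialofetuin-coated plates, 3 hours at 4° C. Bound Gal-3 detected with streptavidin-peroxidase (80 ng/mL, 1 hour, 4° C) and ABTS substrate. IC50 reported as the mean of several measurements.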

human Gal-1 (hGal-1) = human Gal-1 (hGal-1) (Homo sapiens (Human), UniProt P09382); experiment: competitive binding assay: biotinylated hGal-1 binding to microplate-adsorbed asialofetuin (ASF); settings: Table 15; read-out: IC50 (Galectin-1 inhibition)
Method in brief: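 Biotinylated human Gal-1 (300-1000 ng/mL) competes with serially diluted compound for binding to ASF-coated plates, 3 h at 4° C. Bound protein detected with streptavidin-peroxidase and ABTS substrate (spectrophotometric). IC50 given as mean of several measurements.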

[1] = Table 5, read-out: IC50 (Gal-3 inhibition)
[2] = Gal-3 inhibition, binding of biotinylated hGal-3 to ASF, mean values, read-out: IC50
[3] = Table 10, 2-OMe-Gal inhibitors, read-out: IC50 (Gal-3 inhibition)

Chain of human Gal-1 (hGal-1) (P09382 whole entry): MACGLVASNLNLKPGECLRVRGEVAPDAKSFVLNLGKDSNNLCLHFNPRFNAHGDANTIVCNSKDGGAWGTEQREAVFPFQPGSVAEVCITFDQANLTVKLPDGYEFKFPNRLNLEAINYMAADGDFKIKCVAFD
Chain of human Gal-3 (hGal-3) (P17931 whole entry): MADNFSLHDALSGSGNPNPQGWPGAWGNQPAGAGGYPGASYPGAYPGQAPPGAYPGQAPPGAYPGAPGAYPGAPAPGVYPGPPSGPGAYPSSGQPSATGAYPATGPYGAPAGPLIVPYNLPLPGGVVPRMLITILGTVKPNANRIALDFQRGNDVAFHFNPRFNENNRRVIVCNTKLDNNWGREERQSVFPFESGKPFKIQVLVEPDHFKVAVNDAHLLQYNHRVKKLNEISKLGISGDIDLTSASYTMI

| Compound | IC50 (human Gal-3 (hGal-3); [1]) | IC50 (human Gal-1 (hGal-1)) | IC50 (human Gal-3 (hGal-3); [2]) | IC50 (human Gal-3 (hGal-3); [3]) | IC50 (human Gal-3 (hGal-3); Table 9, 2-OMe-Gal inhibitors, read-out: IC50 (Gal-3 inhibition)) |
| --- | --- | --- | --- | --- | --- |
| OC[C@H]1O[C@@H](S[C@H](c2ncccc2C(F)(F)F)C2(O)CCCC2)[C@H](O)[C@@H](n2cc(-c3cc(F)c(F)c(F)c3)nn2)[C@H]1O [Example 2.38.125R., (2S,3R,4S,5R,6R)-2-(((R)-(1-Hydroxycyclopentyl)(3-(trifluoromethyl)pyridin-2-yl)methyl)thio)-6-(hydroxymethyl)-4-(4-(3,4,5-trifluorophenyl)-1H-1,2,3-triazol-1-yl)tetrahydro-2H-pyran-3,5-diol] | – | 480 nM | 80 nM | – | – |
| OC[C@H]1O[C@@H](S[C@@H](c2ncccc2C(F)(F)F)C2(O)CCCC2)[C@H](O)[C@@H](n2cc(-c3cc(F)c(F)c(F)c3)nn2)[C@H]1O [Example 2.38.125S., (2S,3R,4S,5R,6R)-2-(((S)-(1-Hydroxycyclopentyl)(3-(trifluoromethyl)pyridin-2-yl)methyl)thio)-6-(hydroxymethyl)-4-(4-(3,4,5-trifluorophenyl)-1H-1,2,3-triazol-1-yl)tetrahydro-2H-pyran-3,5-diol] | – | 15100 nM | 5620 nM | – | – |
| Cc1ccccc1C(S[C@@H]1O[C@H](CO)[C@H](O)[C@H](n2cc(-c3cc(F)c(F)c(F)c3)nn2)[C@H]1O)C1(O)CCCCC1 (stereo partly drawn) [Example 2.39.102., (2S,3R,4S,5R,6R)-2-(((1-Hydroxycyclohexyl)(o-tolyl)methyl)thio)-6-(hydroxymethyl)-4-(4-(3,4,5-trifluorophenyl)-1H-1,2,3-triazol-1-yl)tetrahydro-2H-pyran-3,5-diol] | 90 nM | 1600 nM | – | – | – |
| Cc1ccccc1[C@@H](S[C@@H]1O[C@H](CO)[C@H](O)[C@H](n2cc(-c3cc(F)c(F)c(F)c3)nn2)[C@H]1O)C1(O)CCCCC1 [Example 2.39.102R., (2S,3R,4S,5R,6R)-2-(((R)-(1-Hydroxycyclohexyl)(o-tolyl)methyl)thio)-6-(hydroxymethyl)-4-(4-(3,4,5-trifluorophenyl)-1H-1,2,3-triazol-1-yl)tetrahydro-2H-pyran-3,5-diol] | 90 nM | 1140 nM | – | – | – |
| Cc1ccccc1[C@H](S[C@@H]1O[C@H](CO)[C@H](O)[C@H](n2cc(-c3cc(F)c(F)c(F)c3)nn2)[C@H]1O)C1(O)CCCCC1 [Example 2.39.102S., (2S,3R,4S,5R,6R)-2-(((S)-(1-Hydroxycyclohexyl)(o-tolyl)methyl)thio)-6-(hydroxymethyl)-4-(4-(3,4,5-trifluorophenyl)-1H-1,2,3-triazol-1-yl)tetrahydro-2H-pyran-3,5-diol] | 4540 nM | 24000 nM | – | – | – |
| Cc1nc(C)c([C@H](S[C@@H]2O[C@H](CO)[C@H](O)[C@H](n3cc(-c4cc(F)c(F)c(F)c4)nn3)[C@H]2O)C2(O)CCCCC2)nc1C [Example 2.39.119S., (2S,3R,4S,5R,6R)-2-(((S)-(1-Hydroxycyclohexyl) (3,5,6-trimethylpyrazin-2-yl)methyl)thio)-6-(hydroxymethyl)-4-(4-(3,4,5-trifluorophenyl)-1H-1,2,3-triazol-1-yl)tetrahydro-2H-pyran-3,5-diol] | 3960 nM | 18900 nM | – | – | – |
| Cc1conc1[C@@H](S[C@@H]1O[C@H](CO)[C@H](O)[C@H](n2cc(-c3cc(F)c(F)c(F)c3)nn2)[C@H]1O)C1(O)CCCCC1 [Example 2.39.120R., (2S,3R,4S,5R,6R)-2-(((R)-(1-Hydroxycyclohexyl)(4-methylisoxazol-3-yl)methyl)thio)-6-(hydroxymethyl)-4-(4-(3,4,5-trifluorophenyl)-1H-1,2,3-triazol-1-yl)tetrahydro-2H-pyran-3,5-diol] | 200 nM | 610 nM | – | – | – |
| CO[C@@H]1[C@@H](n2cc(-c3cc(F)c(F)c(F)c3)nn2)[C@@H](O)[C@@H](CO)O[C@H]1S[C@H](c1nocc1C)C1(O)CCCCC1 [Example 2.39.120R.I., (2R,3R,4S,5R,6S)-6-(((R)-(1-Hydroxycyclohexyl)(4-methylisoxazol-3-yl)methyl)thio)-2-(hydroxymethyl)-5-methoxy-4-(4-(3,4,5-trifluorophenyl)-1H-1,2,3-triazol-1-yl)tetrahydro-2H-pyran-3-ol] | – | 560 nM | – | 250 nM | – |
| OC[C@H]1O[C@@H](S[C@H](c2ncccc2C(F)(F)F)C2(O)CCCCC2)[C@H](O)[C@@H](n2cc(-c3cc(F)c(F)c(F)c3)nn2)[C@H]1O [Example 2.39.125R., (2S,3R,4S,5R,6R)-2-(((R)-(1-Hydroxycyclohexyl)(3-(trifluoromethyl)pyridin-2-yl)methyl)thio)-6-(hydroxymethyl)-4-(4-(3,4,5-trifluorophenyl)-1H-1,2,3-triazol-1-yl)tetrahydro-2H-pyran-3,5-diol] | 100 nM | 280 nM | – | – | – |

The next lines start with the values.

| IC50 (human Gal-3 (hGal-3); [1]) | IC50 (human Gal-1 (hGal-1)) | IC50 (human Gal-3 (hGal-3); [2]) | IC50 (human Gal-3 (hGal-3); [3]) | IC50 (human Gal-3 (hGal-3); Table 9, 2-OMe-Gal inhibitors, read-out: IC50 (Gal-3 inhibition)) | Compound |
| --- | --- | --- | --- | --- | --- |
| 110 nM | 1800 nM | – | – | – | Cc1ccccc1[C@@H](S[C@@H]1O[C@H](CO)[C@H](O)[C@H](n2cc(-c3cc(F)c(F)c(F)c3)nn2)[C@H]1O)C1(O)CCCC1 [Example 2.38.102R., (2S,3R,4S,5R,6R)-2-(((R)-(1-Hydroxycyclopentyl)(o-tolyl)methyl)thio)-6-(hydroxymethyl)-4-(4-(3,4,5-trifluorophenyl)-1H-1,2,3-triazol-1-yl)tetrahydro-2H-pyran-3,5-diol] |
| 2750 nM | 17000 nM | – | – | – | Cc1ccccc1[C@H](S[C@@H]1O[C@H](CO)[C@H](O)[C@H](n2cc(-c3cc(F)c(F)c(F)c3)nn2)[C@H]1O)C1(O)CCCC1 [Example 2.38.102S., (2S,3R,4S,5R,6R)-2-(((S)-(1-Hydroxycyclopentyl)(o-tolyl)methyl)thio)-6-(hydroxymethyl)-4-(4-(3,4,5-trifluorophenyl)-1H-1,2,3-triazol-1-yl)tetrahydro-2H-pyran-3,5-diol] |
| – | 760 nM | 130 nM | – | – | OC[C@H]1O[C@@H](SC(c2ncccc2C(F)(F)F)C2(O)CCCC2)[C@H](O)[C@@H](n2cc(-c3cc(F)c(F)c(F)c3)nn2)[C@H]1O (stereo partly drawn) [Example 2.38.125.] |
| 70 nM | 730 nM | – | – | – | Cc1nc(C)c([C@@H](S[C@@H]2O[C@H](CO)[C@H](O)[C@H](n3cc(-c4cc(F)c(F)c(F)c4)nn3)[C@H]2O)C2(O)CCCCC2)nc1C [Example 2.39.119R., (2S,3R,4S,5R,6R)-2-(((R)-(1-Hydroxycyclohexyl) (3,5,6-trimethylpyrazin-2-yl)methyl)thio)-6-(hydroxymethyl)-4-(4-(3,4,5-trifluorophenyl)-1H-1,2,3-triazol-1-yl)tetrahydro-2H-pyran-3,5-diol] |
| – | 27300 nM | – | 12500 nM | – | CO[C@@H]1[C@@H](n2cc(-c3cc(F)c(F)c(F)c3)nn2)[C@@H](O)[C@@H](CO)O[C@H]1S[C@@H](c1nocc1C)C1(O)CCCCC1 [Example 2.39.120S.I., (2R,3R,4S,5R,6S)-6-(((S)-(1-Hydroxycyclohexyl)(4-methylisoxazol-3-yl)methyl)thio)-2-(hydroxymethyl)-5-methoxy-4-(4-(3,4,5-trifluorophenyl)-1H-1,2,3-triazol-1-yl)tetrahydro-2H-pyran-3-ol] |
| – | 460 nM | – | – | 90 nM | CO[C@@H]1[C@@H](n2cc(-c3cc(F)c(F)c(F)c3)nn2)[C@@H](O)[C@@H](CO)O[C@H]1S[C@H](c1ncccc1C(F)(F)F)C1(O)CCCCC1 [Example 2.39.125R.I., (2R,3R,4S,5R,6S)-6-(((R)-(1-Hydroxycyclohexyl)(3-(trifluoromethyl)pyridin-2-yl)methyl)thio)-2-(hydroxymethyl)-5-methoxy-4-(4-(3,4,5-trifluorophenyl)-1H-1,2,3-triazol-1-yl)tetrahydro-2H-pyran-3-ol] |
